Test results reported in ChEMBL document CHEMBL5352391, “New structural classes of antimalarials” (Eur J Med Chem, 2022).
Converted amounts (≈) assume the structure as drawn.

How the values were obtained:
[1] = system: Plasmodium falciparum; assay: Antimalarial activity against chloroquine resistant Plasmodium falciparum assessed as inhibition of parasite growth; assay type: functional, organism-based
[2] = Selectivity index, ratio of CC50 for cytotoxicity against human HepG2 cells by MTT assay to IC50 for antiplasmodial activity against chloroquine sensitive Plasmodium falciparum 3D7 by SYBR green I dye based fluorescence assay; assay type: toxicity, cell-based; conditions: read-out: Ratio CC50/IC50
[3] = system: Plasmodium falciparum; assay: Antiplasmodial activity against chloroquine sensitive Plasmodium falciparum 3D7 assessed as inhibition of parasite growth incubated for 48 hrs by SYBR green I dye based fluorescence assay; assay type: functional, organism-based; conditions: 3D7, 48 h
[4] = system: Plasmodium falciparum; assay: Antiplasmodial activity against chloroquine resistant Plasmodium falciparum W2 assessed as inhibition of parasite growth incubated for 48 hrs by SYBR green I dye based fluorescence assay; assay type: functional, organism-based; conditions: W2, 48 h
[5] = system: Plasmodium falciparum; assay: Antiplasmodial activity against chloroquine resistant Plasmodium falciparum K14 assessed as inhibition of parasite growth incubated for 48 hrs by [3H]-hypoxanthine incorporation based microbeta scintillation counting method; assay type: functional, organism-based
[6] = Cytotoxicity against human HepG2 cells assessed as reduction in cell viability incubated for 72 hrs by MTT assay; assay type: toxicity, cell-based
[7] = system: Plasmodium falciparum; assay: Antiplasmodial activity against erythrocytic stage of Plasmodium falciparum NF54 assessed as reduction of parasite growth incubated for 48 hrs by [3H]-hypoxanthine incorporation based beta-plate liquid scintillation counting method; assay type: functional, organism-based
[8] = system: Plasmodium falciparum; assay: Antiplasmodial activity against erythrocytic stage of Plasmodium falciparum 3D7 assessed as reduction of parasite growth incubated for 100 hrs by SYBR Green dye based fluorescence assay; assay type: functional, organism-based; conditions: 3D7, 100 h
[9] = Selectivity index, ratio of CC50 for cytotoxicity against human HepG2 cells by MTT assay to EC50 for antiplasmodial activity against erythrocytic stage of Plasmodium falciparum 3D7 by SYBR Green dye based fluorescence assay; assay type: toxicity, cell-based; conditions: read-out: Ratio CC50/EC50
[10] = system: Plasmodium falciparum; assay: Antiplasmodial activity against erythrocytic stage of Plasmodium falciparum K1 assessed as reduction of parasite growth incubated for 48 hrs by [3H]-hypoxanthine incorporation based beta-plate liquid scintillation counting method; assay type: functional, organism-based
[11] = Selectivity index, ratio of CC50 for cytotoxicity against human HepG2 cells by MTT assay to EC50 for antiplasmodial activity against erythrocytic stage of Plasmodium falciparum K1 by [3H]-hypoxanthine incorporation based liquid scintillation counting method; assay type: toxicity, cell-based; conditions: read-out: Ratio CC50/EC50
[12] = Selectivity index, ratio of CC50 for cytotoxicity against human HepG2 cells by MTT assay to EC50 for antiplasmodial activity against erythrocytic stage of Plasmodium falciparum NF54 by [3H]-hypoxanthine incorporation based liquid scintillation counting method; assay type: toxicity, cell-based; conditions: read-out: Ratio CC50/EC50
[13] = system: Plasmodium falciparum; assay: Antimalarial activity against Plasmodium falciparum 3D7 assessed as reduction of parasite growth at 25 uM incubated for 96 hrs by SYBR green I dye based fluorescence assay relative to control; assay type: functional; design: scale not given: the % may be the effect or the level left
[14] = system: Plasmodium falciparum; assay: Antimalarial activity against Plasmodium falciparum 3D7 assessed as reduction of parasite growth incubated for 96 hrs by SYBR green I dye based fluorescence assay; assay type: functional, organism-based; conditions: 3D7, 96 h
[15] = system: Plasmodium falciparum; assay: Antiplasmodial activity against Plasmodium falciparum 3D7 assessed as inhibition of parasite growth incubated for 72 hrs by LDH assay based spectrofluorometric analysis; assay type: functional, organism-based; conditions: 3D7, 72 h
[16] = system: Plasmodium falciparum; assay: Antiplasmodial activity against chloroquine resistant Plasmodium falciparum Dd2 assessed as inhibition of parasite growth incubated for 72 hrs by LDH assay based spectrofluorometric analysis; assay type: functional, organism-based; conditions: Dd2, 72 h
[17] = target: T1, Falcipain 2 (Plasmodium falciparum, UniProt Q9N6S8); assay: Inhibition of Plasmodium falciparum recombinant His-tagged falcipain-2 expressed in Escherichia coli assessed as inhibition constant using Cbz-Phe-Arg-AMC as substrate by fluorescence spectrophotometer assay
T1 sequence (Q9N6S8 whole entry): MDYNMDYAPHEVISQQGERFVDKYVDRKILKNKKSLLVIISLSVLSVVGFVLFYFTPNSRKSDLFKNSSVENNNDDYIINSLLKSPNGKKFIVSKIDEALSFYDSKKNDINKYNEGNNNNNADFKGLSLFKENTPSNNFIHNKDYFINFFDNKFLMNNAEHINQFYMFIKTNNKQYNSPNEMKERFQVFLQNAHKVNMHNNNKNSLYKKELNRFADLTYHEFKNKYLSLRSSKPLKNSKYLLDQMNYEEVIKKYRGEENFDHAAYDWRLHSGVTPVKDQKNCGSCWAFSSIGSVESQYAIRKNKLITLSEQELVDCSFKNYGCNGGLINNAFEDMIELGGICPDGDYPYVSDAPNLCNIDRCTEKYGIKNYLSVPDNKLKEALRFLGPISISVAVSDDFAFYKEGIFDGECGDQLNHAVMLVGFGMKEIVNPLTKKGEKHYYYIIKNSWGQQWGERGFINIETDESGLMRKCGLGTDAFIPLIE

[18] = system: Plasmodium falciparum; assay: Antimalarial activity against Plasmodium falciparum FCBR assessed as inhibition of parasite growth by SYTOX Green dye based high-throughput assay; assay type: functional, organism-based
[19] = system: Plasmodium falciparum; assay: Antiplasmodial activity against Plasmodium falciparum K1 infected in human erythrocyte assessed as inhibition of parasite growth incubated for 72 hrs by [3H]-hypoxanthine incorporation based liquid scintillation counting method; assay type: functional, organism-based
[20] = Retention time of the compound by HPLC-MS analysis; assay type: physicochemical
[21] = system: Plasmodium falciparum; assay: Additive antiplasmodial activity against Plasmodium falciparum NF54 gametocytes infected in human erythrocyte assessed as inhibition of parasite growth by measuring minimum inhibitory concentration incubated for 48 hrs in presence of lumefantrine by SYBR Green dye based fluorescence assay; assay type: functional
[22] = system: Plasmodium falciparum; assay: Additive antiplasmodial activity against Plasmodium falciparum NF54 gametocytes infected in human erythrocyte assessed as inhibition of parasite growth by measuring minimum inhibitory concentration incubated for 48 hrs in presence of mefloquine by SYBR Green dye based fluorescence assay; assay type: functional
[23] = system: Plasmodium falciparum; assay: Additive antiplasmodial activity against Plasmodium falciparum NF54 gametocytes infected in human erythrocyte assessed as inhibition of parasite growth by measuring minimum inhibitory concentration incubated for 48 hrs in presence of chloroquine by SYBR Green dye based fluorescence assay; assay type: functional
[24] = system: Plasmodium falciparum; assay: Antiplasmodial activity against Plasmodium falciparum NF54 gametocytes infected in human erythrocyte assessed as inhibition of parasite growthVincubated for 48 hrs by SYBR Green dye based fluorescence assay; assay type: functional, organism-based
[25] = system: Plasmodium falciparum; assay: Antiplasmodial activity against mixture of chloroquine resistant Plasmodium falciparum RKL 303-chloroquine sensitive Plasmodium falciparum 3D7 infected in human erythrocyte assessed as inhibition of parasite growth incubated for 48 hrs by Giemsa staining based microscopic analysis; assay type: functional, organism-based

Compound `Nc1cc(Cl)c(S(N)(=O)=O)cc1-c1nnc(S)n1-c1ccccc1Cl` has an IC50 [1] of 0.025 µg/mL (≈ 0.0601 µM).
`COc1ccc2c(c1)nc(-c1cccc(CNCCCN3CCN(CCCNCc4cccc(-c5nc6ccc(OC)cc6n6cccc56)c4)CC3)c1)c1cccn12` gave a selectivity ratio [2] of 39.2, an IC50 [3] of 40 nM and an IC50 [4] of 170 nM.
With `O=C(Nc1ccc([C@@H]2[C@H](Oc3ccc(Cl)cc3Cl)C(=O)N2c2ccc(Cl)cc2)cc1)N1CCOCC1` the IC50 [5] was 26 µM.
`CC1(C)C2CC=C(CC(=O)Nc3ccnc4cc(Cl)ccc34)[C@@H]1C2` gave a CC50 at 72 h [6] of 14.3 µM, an EC50 [7] of 21.4 µM and an EC50 [8] of 17.1 µM. The selectivity ratio [9] was 0.8, the EC50 [10] was 7.84 µM and the selectivity ratio [11] was 1.8. For the same compound, the selectivity ratio [12] was 0.7.
`CC1(C)C2CC=C(CC(=O)Nc3ccnc4ccccc34)[C@@H]1C2` gave a CC50 at 72 h [6] of 3.98 µM, an EC50 [7] of 23.4 µM and an EC50 [8] of 26.4 µM. It also gave a selectivity ratio [9] of 0.2, an EC50 [10] of 13.9 µM and a selectivity ratio [11] of 0.3. It also gave a selectivity ratio [12] of 0.2.
Work on `COC(=O)[C@H](Cc1ccc(O)c(-c2ccc(Br)cc2)c1)NC(=O)C(=O)c1c[nH]c2ccccc12` yielded an Activity [13] of 60% and an EC50 [14] of 3.7 µM.
Compound `C/C1=C\[C@H](C)CC[C@@H](O)/C(C)=C/[C@H](C)C[C@@H](C)CC[C@@H]([C@@H](C)C(=O)O)OC(=O)[C@@H](C)C1` has an IC50 [15] of 13 nM and an IC50 [16] of 32 nM.
`N=C(NC(=O)OCc1ccccc1)NC(=O)c1ccc(C(=O)NCc2ccc(NC(=O)OCc3ccccc3)cc2)o1` gave a Ki [17] of 1080 nM and an IC50 [18] of 1060 nM.
With `CC1(C)C2CC=C(CC(=O)Nc3cccc4cccnc34)[C@@H]1C2` the CC50 at 72 h [6] was > 100 µM, the EC50 [7] was > 50 µM and the EC50 [8] was 2.19 µM. The selectivity ratio [9] was > 62.3 and the EC50 [10] was > 50 µM.
With `C[C@H](C[C@H](O)[C@@H](O)C(C)(C)O)C1=C2C[C@H](O)[C@H]3[C@@]4(C)CCC(=O)C(C)(C)[C@@H]4CC[C@]3(C)[C@@]2(C)CC1` [ALISOL A] the IC50 [19] was 13.8 µM and the Retention_time [20] was 23 min.
For `C[n+]1c2ccccc2cc2[n-]c3ccccc3c21` [CRYPTOLEPINE], the MIC50 [21] was 1.02 nM, the MIC50 [22] was 4.18 nM and the MIC50 [23] was 1.46 nM. The IC50 [24] was 19.6 nM.
For `C=CC(C)(C)c1cc(/C=C/C(=O)c2ccc(O)cc2)c(OC)cc1O` [LICOAGROCHACONE A], the IC50 [25] was 1.43 µg/mL (≈ 4.23 µM).
`C=C[C@H]1CN2CC[C@H]1C[C@H]2[C@H](O)c1ccnc2ccc(OC)cc12` [QUININE] gave an IC50 [1] of 0.026 µg/mL (≈ 0.0801 µM).
